Results reported in patent US20060014642A1, “Herbicidal compositions” (Bayer CropScience GmbH, priority 2004, published 2006).

How the values were obtained:
Type in all cases: in vivo
[1] = tested on: Festuca rubra; test: Outdoor trial, post-emergence herbicidal action against Festuca rubra
Protocol: (§1) The herbicidal efficacy of the active compounds or active compound mixtures was scored visually by comparing the treated pots (soil) with untreated controls. The damage and development of all above-ground plant parts was recorded. Scoring was done on a percentage scale (100% action=all plants dead or not emerged; 50% action=50% of the plants and green plant parts dead or not emerged; 0% action=no discernible action=like control plot). The score figures of in any case 4 repetitions (pots) were averaged.
(§2) Seeds or rhizome pieces of monocotyledonous and dicotyledonous weeds are placed in sandy loam in pots, covered with soil and grown in the greenhouse under good growth conditions (temperature, atmospheric humidity, water supply). Three weeks after sowing, the test plants are treated in the three-leaf stage with the compositions according to the invention. The compositions according to the invention, formulated as wettable powders or emulsion concentrates, are sprayed onto the green plant parts in various dosages using an application rate of 300 to 800 l of water/ha (converted). After the test plants have remained in the greenhouse under optimum growth conditions for about 3 to 4 weeks, the effect of the preparations is scored visually in comparison with untreated controls (scoring as in Example 1). […]

[2] = tested on: Poa trivialis; test: Outdoor trial, post-emergence herbicidal action against Poa trivialis
Protocol: as §1, §2

[3] = tested on: Lolium multiflorum; test: Outdoor trial, post-emergence herbicidal action against Lolium multiflorum; conditions: application at the 2-5-leaf stage (post-emergence), evaluation 55 days after treatment
Protocol: as §1
Seeds or rhizome pieces of monocotyledonous and dicotyledonous weeds are placed in sandy loam in pots, covered with soil and grown in the greenhouse under good growth conditions (temperature, atmospheric humidity, water supply). Three weeks after sowing, the test plants are treated in the three-leaf stage with the compositions according to the invention. The compositions according to the invention, formulated as wettable powders or emulsion concentrates, are sprayed onto the green plant parts in various dosages using an application rate of 300 to 800 l of water/ha (converted). After the test plants have remained in the greenhouse under optimum growth conditions for about 3 to 4 weeks, the effect of the preparations is scored visually in comparison with untreated controls (scoring as in Example 1). The compositions according to the invention also have good herbicidal post-emergence action against a broad spectrum of economically important weed grasses and broad-leaf weeds.
Corresponding to the greenhouse experiments of sections 1 and 2, the tests were carried out in the open on plots. Scoring was carried out analogously to the tests in sections 1 and 2.
Certain combinations were tested for their herbicidal activity in accordance to the general example in section 3 in combination with section 2 (post-emergence method).

[4] = 600 g of AS/ha, application at stage 21, evaluation 35 days after treatment
[5] = 200 g of AS/ha, application at stage 21 of the harmful plants, evaluation 35 days after treatment

CP(=O)(O)CCC(N)C(=O)O (racemic) [(B2.1.1.1), 4-[hydroxy(methyl)phosphinoyl]-DL-homoalanine, reference compound]
Herbicidal action [%] against Festuca rubra [1, 4]: 87%
Herbicidal action [%] against Poa trivialis [2, 4]: 88%

O=C(O)CNCP(=O)(O)O [(B2.1.2.1), N-(phosphonomethyl)glycine, reference compound]
Herbicidal action [%] against Lolium multiflorum ([3]; 1080 g of AS/ha): 18%

Cc1ccc2c(c1)[C@H](Nc1nc(N)nc([C@@H](C)F)n1)CC2 [(A11), 2-amino-4-[(1R)-6-methylindan-1-ylamino]-6-[(1R)-1-fluoroethyl]-1,3,5-triazine]
Herbicidal action [%] against Festuca rubra [1, 5]: 0%
Herbicidal action [%] against Lolium multiflorum ([3]; 200 g of AS/ha): 20%
Herbicidal action [%] against Lolium multiflorum ([3]; 300 g of AS/ha): 50%
Herbicidal action [%] against Poa trivialis [2, 5]: 0%
